# Data published in PMC11148078, “Potent activity of polymyxin B is associated with long-lived super-stoichiometric accumulation mediated by weak-affinity binding to lipid A” (Nature Communications, 2024).
# Where two headings read alike, the source gives them in different places. Bridge positions count the residues as written; N and C are the ends. Square brackets hold non-standard residues; d marks the D form. Peptide text beside a SMILES is read from it. * marks the point of attachment. X1 = CC[C@H](C)CCCCC(=O)*; Dab = NCC[C@H](N)C(=O)O
# Columns and labels:
# [1] = tested on: E. coli PmrA^G53E+rifampicin; experiment: Rifampicin potentiation / outer membrane permeability, E. coli PmrA^G53E; assay type: cell-based
# Description: (§1) Bacterial strains and plasmids are listed in SI Table S5. LB growth media was prepared according to manufacturer’s instructions and supplemented with 0.2% arabinose and carbenicillin (50 μg/mL) for the strains containing pBAD24-mcr1 plasmid. Cultures were started by inoculating 3 ml LB with 1–2 colonies from fresh overnight plates and grown at 37 °C until in log phase. Modified minimal inhibitory concentration (MIC) assays were performed in 96-well round bottom polystyrene plates (Corning) with a final volume of 100 µl in LB supplemented with tween-80 at 0.0005%. […] Polymyxin B sulfate (TCI Co. Ltd), polymyxin B nonapeptide (PMBN) (Sigma), and brevicidine (Genentech) were diluted directly in the assay plates. Bacteria were diluted in LB with tween-80 0.0005% and added to a final OD600 of 0.0005. Growth was measured via OD600 on a SpectraMax M5 plate reader after overnight static growth at 37 °C with humidity.
# E. coli mcr1 = assay type: cell-based; settings: for MIC: strain carrying plasmid encoding mcr-1, LB + 0.2% arabinose, carbenicillin, 0.0005% tween-80, overnight 37 °C
# Description: as §1
# E. coli PmrA^G53E = assay type: cell-based; settings: for MIC: LB + 0.0005% tween-80, overnight 37 °C
# Description: as §1
# resistant-OMVs = experiment: SPR steady-state affinity of reversible binding, resistant-OMVs; design: species or system E. coli; settings: no pre-saturation; n=4 (polymyxin B), n=3 (PMBN), (SD); read-out: Apparent KD
# Description: (§2) An apparent-KD was measured for the reversible saw-tooth binding profile where polymyxin B was titrated over an OMV surface pre-saturated with the stable binding component (Supplementary Information Fig. S11B). […] No pre-saturation was necessary when using resistant-OMVs or PMBN as these lack the stable component (Fig. 2B, D–F).
# (§3) Binding and kinetic analysis of SPR-OMV assays
# (§4) To determine the apparent- KD of the reversible binding event of polymyxin B, single-cycle kinetics were performed as described in Materials and Methods. After OMVs were loaded, 5 µM polymyxin B was injected for 360 sec ([…] flow rate) followed by 120 sec dissociations to saturate the stable-binding population prior to the sample injections. The base-to-peak value of each trace was determined from double-referenced traces (reference 1: - OMVs/ + compound channel; reference 2: + OMVs/ - compound) exported from the Biacore S200 evaluation software into PRISM 9 software. The change in RU with each pulse was plotted over the concentration and the KD determined by fitting a non-linear regression, one-site total function with background parameter set to 0 (GraphPad Prism version 9.3.1 for Mac, GraphPad Software, San Diego, California USA, www.graphpad.com). […]
# wt-OMVs = experiment: SPR steady-state affinity of reversible (saw-tooth) binding, wt-OMVs; design: species or system E. coli; settings: n=4, (SD), read-out: Apparent KD
# Description: as §2, §3, §4
SMILES,MIC in presence of rifampicin [1] [µM],MIC (E. coli mcr1) [µM],MIC (E. coli PmrA^G53E) [µM],Kd (resistant-OMVs) [nM],Kd (wt-OMVs; no pre-saturation) [nM],outer membrane permeabilization / rifampicin potentiation [1],antibacterial activity (E. coli mcr1; pBAD-mcr-1),antibacterial activity (E. coli PmrA^G53E),"Kd (wt-OMVs; isolated reversible binding, OMVs pre-saturated with 5 µM polymyxin B) [nM]"
CC(C)C[C@@H]1NC(=O)[C@@H](Cc2ccccc2)NC(=O)[C@H](CCN)NC(=O)[C@@H](NC(=O)[C@H](CCN)NC(=O)[C@@H](N)[C@@H](C)O)CCNC(=O)[C@H]([C@@H](C)O)NC(=O)[C@H](CCN)NC(=O)[C@H](CCN)NC1=O [PMBN] (H-T[Dab][Dab][Dab][dF]L[Dab][Dab]T; lactam 3-C),20,>40,>40,371,288,,,,
CC[C@H](C)CCCCC(=O)N[C@@H](CCN)C(=O)N[C@H](C(=O)N[C@@H](CCN)C(=O)N[C@H]1CCNC(=O)[C@H]([C@@H](C)O)NC(=O)[C@H](CCN)NC(=O)[C@H](CCN)NC(=O)[C@H](CC(C)C)NC(=O)[C@@H](Cc2ccccc2)NC(=O)[C@H](CCN)NC1=O)[C@@H](C)O [Polymyxin B] (X1-[Dab]T[Dab][Dab][Dab][dF]L[Dab][Dab]T; lactam 4-C (inferred); N-terminus assumed),0.001,2.5 to 5,10,273,,"still potentiated the activity of an antibiotic normally excluded by the outer membrane, rifampicin",resistant to killing by polymyxin B,resistant to killing by polymyxin B,517
